Holding throughout (assay type): biochemical
The target in assay [1] is T1, human TYK2 (Homo sapiens, UniProt P29597).
T1 construct: catalytic domain (amino acids 871-1187; catalog number 08-147); purchased Carna Biosciences 08-147
T1 sequence (P29597 871-1187): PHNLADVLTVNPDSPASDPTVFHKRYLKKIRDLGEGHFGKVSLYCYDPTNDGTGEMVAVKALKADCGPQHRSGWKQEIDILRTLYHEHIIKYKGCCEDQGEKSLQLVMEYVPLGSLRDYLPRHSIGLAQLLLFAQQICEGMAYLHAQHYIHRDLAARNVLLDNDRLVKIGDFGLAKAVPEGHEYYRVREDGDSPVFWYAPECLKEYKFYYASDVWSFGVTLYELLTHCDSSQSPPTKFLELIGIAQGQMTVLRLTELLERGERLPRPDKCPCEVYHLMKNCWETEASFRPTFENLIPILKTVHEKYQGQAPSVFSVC
Briefly: TYK2 inhibition assay. The settings on record: recombinant human TYK2 catalytic domain, polyGT substrate. As for the experimental part: 1.4 TYK2 Inhibition Assay
After 90 min at 30° C., reactions were stopped by adding 25 μL/well of 150 mM phosphoric acid. […] Plates were washed 6 times with 300 μL per well of a 75 mM phosphoric acid solution and the bottom of the plates was sealed. 40 μL/well of Microscint-20 was added, the top of the plates was sealed and readout was performed using the Topcount (Perkin Elmer). Kinase activity was calculated by subtracting counts per min (cpm) obtained in the presence of a positive control inhibitor (10 μM staurosporine) from cpm obtained in the presence of vehicle. The ability of a test compound to inhibit this activity was determined as:
(§1) Percentage inhibition=((cpm determined for sample with test compound present−cpm determined for sample with positive control inhibitor)divided by(cpm determined in the presence of vehicle−cpm determined for sample with positive control inhibitor))*100.
Dose dilution series were prepared for the compounds enabling the testing of dose-response effects in the TYK2 assay and the calculation of the IC50 for each compound.

For assay [2], the target named is T2, human JAK2 (Homo sapiens, UniProt O60674).
T2 construct: catalytic domain (amino acids 808-1132; catalog number PV4210); GST; purchased Invitrogen PV4210
Briefly: JAK2 inhibition assay (polyGT substrate / Ulight-JAK1 peptide). The following applies: recombinant human JAK2 catalytic domain; polyGT or Ulight-JAK1 peptide assay. As to the method: 1.2 JAK2 Inhibition Assay
1.2.1 JAK2 Assay polyGT Substrate
0.025 mU of JAK2 is incubated with 2.5 μg polyGT substrate (Sigma catalog number P0275) in kinase reaction buffer (5 mM MOPS pH 7.5, 9 mM MgAc, 0.3 mM EDTA, 0.06% Brij and 0.6 mM DTT, 1 μM non-radioactive ATP, 0.25 μCi ^33P-gamma-ATP (GE Healthcare, catalog number AH9968) final concentrations) with or without 5 μL containing test compound or vehicle (DMSO, 1% final concentration), in a total volume of 25 μL, in a polypropylene 96-well plate (Greiner, V-bottom). After 90 min at 30° C., reactions are stopped by adding of 25 μL/well of 150 mM phosphoric acid. […] Plates are washed 6 times with 300 μL per well of a 75 mM phosphoric acid solution and the bottom of the plates is sealed. 40 μL/well of Microscint-20 is added, the top of the plates is sealed and readout is performed using the Topcount (Perkin Elmer). Kinase activity is calculated by subtracting counts per min (cpm) obtained in the presence of a positive control inhibitor (10 μM staurosporine) from cpm obtained in the presence of vehicle. The ability of a test compound to inhibit this activity is determined as:
as §1
Dose dilution series are prepared for the compounds enabling the testing of dose-response effects in the JAK2 assay and the calculation of the IC50 for each compound.
1.2.2 JAK2 Ulight-JAK1 Peptide Assay
After 60 min at room temperature, reactions were stopped by adding 20 μL/well of detection mixture (1× detection buffer (Perkin Elmer, catalog number CR97-100C), 0.5 nM Europium-anti-phosphotyrosine (PT66) (Perkin Elmer, catalog number AD0068), 10 mM EDTA). […] Kinase activity was calculated by subtracting relative fluorescence units (RFU) obtained in the presence of a positive control inhibitor (10 μM staurosporine) from RFU obtained in the presence of vehicle. The ability of a test compound to inhibit this activity was determined as:
Percentage inhibition=((RFU determined for sample with test compound present−RFU determined for sample with positive control inhibitor)divided by(RFU determined in the presence of vehicle−RFU determined for sample with positive control inhibitor))*100.
Dose dilution series are prepared for compound enabling the testing of dose-response effects in the JAK2 assay and the calculation of the IC50 for the compound. Each compound is routinely tested at concentration of 20 μM followed by a 1/5 serial dilution, 10 points in a final concentration of 1% DMSO. […] The data are expressed as the average IC50 from the assays±standard error of the mean.

The target in assay [3] is T3, human JAK1 (Homo sapiens, UniProt P23458).
T3 construct: catalytic domain, amino acids 866-1154; catalog number PV4774; purchased Invitrogen PV4774
In words: JAK1 inhibition assay (polyGT substrate / Ulight-JAK1 peptide). The following applies: recombinant human JAK1 catalytic domain; polyGT or Ulight-JAK1 peptide assay. A digest of the protocol:
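Two formats. PolyGT radiometric: 45 min at 30 °C, stopped with phosphoric acid, counted as cpm. Ulight-JAK1 peptide: 60 min at room temperature, stopped with Eu-anti-phosphotyrosine/EDTA, read as RFU. Percent inhibition normalised to vehicle and 10 μM staurosporine.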

Assay [4] concerns the target T4, human JAK3 (Homo sapiens, UniProt P52333).
T4 construct: catalytic domain (amino acids 781-1124; catalog number PV3855); purchased Invitrogen PV3855
In words: JAK3 inhibition assay. The following applies: recombinant human JAK3 catalytic domain; polyGT substrate. As for the experimental part:
1.3 JAK3 Inhibition Assay
0.5 ng JAK3 protein was incubated with 2.5 μg polyGT substrate (Sigma catalog number P0275) in kinase reaction buffer (25 mM Tris pH 7.5, 0.5 mM EGTA, 10 mM MgCl2, 2.5 mM DTT, 0.5 mM Na3VO4, 5 mM b-glycerolphosphate, 0.01% Triton X-100, 1 μM non-radioactive ATP, 0.25 μCi 33P-gamma-ATP (GE Healthcare, catalog number AH9968) final concentrations) with or without 5 μL containing test compound or vehicle (DMSO, 1% final concentration), in a total volume of 25 μL, in a polypropylene 96-well plate (Greiner, V-bottom). After 45 min at 30° C., reactions were stopped by adding 25 μL/well of 150 mM phosphoric acid. […] Plates were washed 6 times with 300 μL per well of a 75 mM phosphoric acid solution and the bottom of the plates was sealed. 40 μL/well of Microscint-20 was added, the top of the plates was sealed and readout was performed using the Topcount (Perkin Elmer). Kinase activity was calculated by subtracting counts per min (cpm) obtained in the presence of a positive control inhibitor (10 μM staurosporine) from cpm obtained in the presence of vehicle. The ability of a test compound to inhibit this activity was determined as:
as §1
Dose dilution series were prepared for the compounds enabling the testing of dose-response effects in the JAK3 assay and the calculation of the IC50 for each compound. Each compound was routinely tested at concentration of 20 μM followed by a 1/5 serial dilution, 10 points in a final concentration of 1% DMSO.

Where only a bound is given, the exact number is not on record here.

T2 sequence (O60674 808-1132): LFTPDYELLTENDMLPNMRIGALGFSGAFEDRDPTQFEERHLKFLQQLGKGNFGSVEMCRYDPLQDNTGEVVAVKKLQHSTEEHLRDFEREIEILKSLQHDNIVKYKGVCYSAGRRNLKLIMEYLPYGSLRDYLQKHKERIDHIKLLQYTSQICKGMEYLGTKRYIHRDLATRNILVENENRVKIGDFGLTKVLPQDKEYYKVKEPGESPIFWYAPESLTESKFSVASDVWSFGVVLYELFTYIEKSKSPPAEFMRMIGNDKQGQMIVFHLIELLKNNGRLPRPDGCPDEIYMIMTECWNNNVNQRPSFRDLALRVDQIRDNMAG
T3 sequence (P23458 866-1154): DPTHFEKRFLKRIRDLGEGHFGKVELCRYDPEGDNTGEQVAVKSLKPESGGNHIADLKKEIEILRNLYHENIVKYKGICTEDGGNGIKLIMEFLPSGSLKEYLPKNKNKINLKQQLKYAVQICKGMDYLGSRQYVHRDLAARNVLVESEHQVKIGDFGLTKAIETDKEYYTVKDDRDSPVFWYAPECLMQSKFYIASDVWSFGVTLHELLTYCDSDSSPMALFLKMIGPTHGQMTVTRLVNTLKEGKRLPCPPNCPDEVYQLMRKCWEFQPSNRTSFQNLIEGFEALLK
T4 sequence (P52333 781-1124): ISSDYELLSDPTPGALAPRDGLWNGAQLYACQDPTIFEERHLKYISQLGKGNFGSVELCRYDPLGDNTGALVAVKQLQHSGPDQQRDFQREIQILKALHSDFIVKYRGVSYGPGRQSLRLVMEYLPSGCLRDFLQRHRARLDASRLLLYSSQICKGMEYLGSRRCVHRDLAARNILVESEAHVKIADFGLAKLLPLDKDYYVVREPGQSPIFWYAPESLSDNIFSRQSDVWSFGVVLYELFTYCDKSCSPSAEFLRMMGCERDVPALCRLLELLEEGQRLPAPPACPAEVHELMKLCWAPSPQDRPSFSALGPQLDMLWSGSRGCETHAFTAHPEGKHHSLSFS

For `CN(c1ccc(OC(F)(F)F)cc1)c1cc2c(cn1)ncn2C` [Compound 1, N,1-dimethyl-N-(4-(trifluoromethoxy)phenyl)-1H-imidazo[4,5-c]pyridin-6-amine], the 50% inhibitory concentration (IC50) in assay [1] is > 1 µM; in assay [2], > 1 µM; in assay [3] it was 0.101 to 0.5 µM; in assay [4], > 1 µM.

Consider `COc1ccc(N(C)c2cc3c(cn2)ncn3C)cc1` [Compound 2, N-(4-methoxyphenyl)-N,1-dimethyl-1H-imidazo[4,5-c]pyridin-6-amine], for which the half-maximal inhibitory concentration (IC50) is > 1 µM in assay [1], > 1 µM in assay [2], 0.101 to 0.5 µM in assay [3] and > 1 µM in assay [4].

In the case of `CCN(c1ccc2occc2c1)c1cc2c(cn1)ncn2C` [Compound 4, N-(benzofuran-5-yl)-N-ethyl-1-methyl-1H-imidazo[4,5-c]pyridin-6-amine], the half-maximal inhibitory concentration (IC50) in assay [1] is 0.101 to 0.5 µM; in assay [2], > 1 µM; in assay [3], 0.101 to 0.5 µM; in assay [4], > 1 µM.

On to `CCN(c1ccc2c(cnn2C)c1)c1cc2c(cn1)ncn2C` [Compound 5, N-ethyl-1-methyl-N-(1-methyl-1H-indazol-5-yl)-1H-imidazo[4,5-c]pyridin-6-amine], for which the half-inhibitory concentration (IC50) in assay [1] is 0.501 to 1 µM; in assay [2], > 1 µM; in assay [3], 0.101 to 0.5 µM; in assay [4], > 1 µM.

For the compound `Cc1cc(OCc2cccnc2)ccc1N(C)c1cc2c(cn1)ncn2C` [Compound 55, N,1-dimethyl-N-(2-methyl-4-(pyridin-3-ylmethoxy)phenyl)-1H-imidazo[4,5-c]pyridin-6-amine], the half-inhibitory concentration (IC50) in assay [1] is > 1 µM; in assay [2], > 1 µM; in assay [3], 0.101 to 0.5 µM; in assay [4], > 1 µM.

Turning to `CN(c1cc2c(cn1)ncn2C)c1ccccc1F` [Compound 67, N-(2-fluorophenyl)-N,1-dimethyl-1H-imidazo[4,5-c]pyridin-6-amine], the IC50 in assay [1] is 0.101 to 0.5 µM; in assay [2] it was > 1 µM; in assay [3], 0.101 to 0.5 µM; in assay [4] it was > 1 µM.

As for `CCc1cc(C(=O)N2CCC(OC)CC2)ccc1N(C)c1cc2c(cn1)ncn2C` [Compound 112, (3-ethyl-4-(methyl(1-methyl-1H-imidazo[4,5-c]pyridin-6-yl)amino)phenyl)(4-methoxypiperidin-1-yl)methanone], the 50% inhibitory concentration (IC50) in assay [2] and in assay [3] was > 1 µM throughout.

Consider `CCc1cc(C(=O)N2CC(C)(C)C2)ccc1N(C)c1cc2c(cn1)ncn2C` [Compound 113, (3,3-dimethylazetidin-1-yl)(3-ethyl-4-(methyl(1-methyl-1H-imidazo[4,5-c]pyridin-6-yl)amino)phenyl)methanone], for which the IC50 in assay [2] and in assay [3] was > 1 µM each time.

Turning to `CCc1ccc(C(=O)NCCOC)cc1N(C)c1cc2c(cn1)ncn2C` [Compound 116, 4-Ethyl-N-(2-methoxyethyl)-3-(methyl(1-methyl-1H-imidazo[4,5-c]pyridin-6-yl)amino)benzamide], the IC50 is > 1 µM in assay [2] and 0.101 to 0.5 µM in assay [3].

For the compound `CCc1cc(C(=O)N2CCOCC2)ccc1N(C)c1cc2c(cn1)ncn2C` [Compound 117, (3-ethyl-4-(methyl(1-methyl-1H-imidazo[4,5-c]pyridin-6-yl)amino)phenyl)(morpho-lino)methanone], the figures for the half-maximal inhibitory concentration (IC50) in assay [2] and in assay [3] were > 1 µM and 0.101 to 0.5 µM, respectively.

For `CCc1cc(C(=O)N(C)C)ccc1N(C)c1cc2c(cn1)ncn2C` [Compound 118, 3-ethyl-N,N-dimethyl-4-(methyl(1-methyl-1H-imidazo[4,5-c]pyridin-6-yl)amino)benzamide], the IC50 in assay [2] is > 1 µM; in assay [3], 0.101 to 0.5 µM.

As to `CCc1ccc(COC)cc1N(C)c1cc2c(cn1)ncn2C` [Compound 122, N-(2-Ethyl-5-(methoxymethyl)phenyl)-N,1-dimethyl-1H-imidazo[4,5-c]pyridin-6-amine], the half-maximal inhibitory concentration (IC50) in assay [2] is > 1 µM; in assay [3], 0.101 to 0.5 µM.

`CCc1ccc(C(=O)Nc2cccnc2)cc1N(C)c1cc2c(cn1)ncn2C` [Compound 124, 4-ethyl-3-(methyl(1-methyl-1H-imidazo[4,5-c]pyridin-6-yl)amino)-N-(pyridin-3-yl)benzamide]: the concentration for half-maximal inhibition (IC50) in assay [2] was > 1 µM; in assay [3] it was 0.101 to 0.5 µM.

For the compound `CCc1ccc(C(=O)NCc2ccccn2)cc1N(C)c1cc2c(cn1)ncn2C` [Compound 125, 4-ethyl-3-(methyl(1-methyl-1H-imidazo[4,5-c]pyridin-6-yl)amino)-N-(pyridin-2-ylmethyl)benzamide], the IC50 is > 1 µM in assay [2] and 0.101 to 0.5 µM in assay [3].

For the compound `CCc1ccc(C(=O)NC)cc1N(C)c1cc2c(cn1)ncn2C` [Compound 128, 4-ethyl-N-methyl-3-(methyl(1-methyl-1H-imidazo[4,5-c]pyridin-6-yl)amino)benzamide], the IC50 is > 1 µM in assay [2] and 0.101 to 0.5 µM in assay [3].

Take `COc1ccc(Cc2cc3c(cn2)ncn3C)cc1` [Compound 275, 6-(4-methoxybenzyl)-1-methyl-1H-imidazo[4,5-c]pyridine]: the concentration for half-maximal inhibition (IC50) in assay [2] and in assay [3] was > 1 µM each time.

For the compound `CCc1ccccc1Oc1cc2c(cn1)ncn2C` [Compound 298, 6-(2-Ethyl-phenoxy)-1-methyl-1H-imidazo[4,5-c]pyridine], the IC50 in assay [2] is > 1 µM; in assay [3], 0.501 to 1 µM.

Turning to `CCc1ccccc1N(CCC#N)c1cc2c(cn1)ncn2C` [Compound 464, 3-((2-ethylphenyl)(1-methyl-1H-imidazo[4,5-c]pyridin-6-yl)amino)propanenitrile], the half-maximal inhibitory concentration (IC50) in assay [1], in assay [2] and in assay [4] was > 1 µM each time.

The record behind these values is patent US20130217664A1, “NOVEL COMPOUNDS USEFUL FOR THE TREATMENT OF DEGENERATIVE AND INFLAMMATORY DISEASES” (priority 2012, published 2013).
